Data as given in patent publication US5711020A (priority 1996, dated 1998).
Values joined by “and” are separate entries in the source; they are usually repeats but may differ in a detail not shown here. Equal entries are not always repeated. Where two headings read alike, the source gives them in different places.

Assays:
[1] = test system: purified dehalogenase
[2] = not given; remark: listed apart in the source
[3] = test system: purified TNT-reducing agent
[4] = not given; remark: listed apart in the source
[5] = test system: TNT reducing enzyme; type: biochemical
[6] = test system: nitrilase; type: biochemical

ClC(Br)C(Cl)Br (stereo not drawn) [1,2-Dibromo-1,2-dichloroethane]
Rate Constant k (pH 7.2): 5.44E-03 min - 1 and 4.54E-03 min - 1

BrCCBr [1,2-Dibromoethane]
Rate Constant k (pH 7.2): 7.13E-04 min - 1 | Half life (vechten pond sediment, pH 7.2): 16.2 h

ClC(Cl)(Cl)Cl [Carbontetrachloride]
Half life (breukelveen sediment, pH 7.6): 10.0 h | Rate Constant k (pH 7.6): 1.16E-03 min - 1

ClC(Cl)(Cl)C(Cl)(Cl)Cl [HCA, hexachloroethane]
Half-life ([1]; 30 µM): 200 min | Half life (breukelveen sediment, pH 7.6): 0.5 h | Half life (dommel sediment, 0.0732 µM, pH 7.5): 1.5 h | Half life (loosdrechtse plassen sediment, 0.0732 µM, pH 7.7): 9.5 h | Rate Constant k (pH 7.2): 2.33E-03 min - 1 | Rate Constant k (pH 7.5): 7.62E-03 min - 1 | Rate Constant k (pH 7.6): 2.47E-02 min - 1 | Rate Constant k (pH 7.7): 1.22E-03 min - 1 | Half life (vechten pond sediment, pH 7.2): 5.0 h

Ic1ccccc1 [Iodobenzene]
Rate Constant k (pH 7.2): 2.55E-05 min - 1 | Half life (vechten pond sediment, pH 7.2): 453.0 h

BrC(Br)=C(Br)Br [PBE, tetrabromoethene]
Half-life ([1]; 30 µM): 1100 min

ClC(Cl)=C(Cl)Cl [PCE, tetrachloroethene]
Half-life ([1]; 60 µM): 200 min | Half-life ([1]; 100 µM): 600 min | Rate Constant k (pH 7.2): 4.05E-05 min - 1 | Half life (vechten pond sediment, pH 7.2): 285.5 h

ClC=C(Cl)Cl [TCE, trichloroethene]
Half-life ([1]; 60 µM): 200 min

IC(I)=C(I)I [Tetraiodoethene]
Rate Constant k (pH 7.2): 9.22E-02 min - 1 | Half life (vechten pond sediment, pH 7.2): 0.1 h

O=[N+]([O-])c1ccccc1 [nitrobenzene]
kcorr, calculated maximum rate assuming a 10% analytical method error ([2]; pH 2.5): 0.25 ± 0.025 10^4 m^-1 | kcorr, calculated maximum rate assuming a 10% analytical method error ([2]; pH 3.85): 0.12 ± 0.012 10^4 m^-1 | kcorr ([2]; pH 5.3): 4.6 ± 0.24 10^4 m^-1 | kobs, observed first-order disappearance rate constant and standard deviation ([2]; pH 5.3): 4.0 ± 0.21 10^-4 m^-1 | kcorr ([2]; pH 7): 4.2 ± 0.20 10^4 m^-1 | kobs, observed first-order disappearance rate constant and standard deviation ([2]; pH 7): 3.8 ± 0.18 10^-4 m^-1 | kcorr ([2]; pH 7.75): 8.5 ± 0.77 10^4 m^-1 | kobs, observed first-order disappearance rate constant and standard deviation ([2]; pH 7.75): 7.7 ± 0.70 10^-4 m^-1 | kcorr ([2]; pH 9.15): 9.3 ± 0.62 10^4 m^-1 | kobs, observed first-order disappearance rate constant and standard deviation ([2]; pH 9.15): 8.6 ± 0.57 10^-4 m^-1 | kcorr ([2]; pH 10.55): 7.8 ± 1.2 10^4 m^-1 | kobs, observed first-order disappearance rate constant and standard deviation ([2]; pH 10.55): 6.6 ± 1.0 10^-4 m^-1 | Half-life [3]: 28 h | t1/2 ([4]; bar-h sediment): 21 min | t1/2 ([4]; beaver dam sediment): 142 min | t1/2 ([4]; hickory hill sediment): 142 min | t1/2 ([4]; memorial park sediment): 120 min

chymotrypsin
effect on TNT-reducing activity [5]: no inhibition | effect on activity of the nitrilase [6]: inhibited

trypsin
effect on TNT-reducing activity [5]: no inhibition | effect on activity of the nitrilase [6]: inhibited
